Test results published in US20090238808A1, “Process for the identification of novel enzyme interacting compounds” (priority 2005, published 2009).

Columns and labels:
[1] = target: T1, proteins captured on kinobeads from Jurkat cell lysate (Homo sapiens, UniProt P50613); test: In-lysate competition binding with kinobeads, Jurkat lysate, iTRAQ MS, relative intensity of identified proteins (Table 22); details: DMSO control = 1.0
T1 construct: endogenous in cells; host or cells: Jurkat clone E6-1 lysate
Description: (§1) This example illustrates competition binding in cell lysates (see particularly the third aspect of the invention). A test compound, Bisindolylmaleimide VIII (Bis VIII, a well known kinase inhibitor; Davies et al., 2000. Specificity and mechanism of action of some commonly used protein kinase inhibitors. Biochemical Journal 351 (Pt 1): 95-105) was added to a cell lysate thereby allowing the test compound to bind to the target proteins in the lysate. Then the lysate was contacted with the kinobeads affinity matrix to capture remaining free target proteins. The proteins bound to the kinobeads matrix were then eluted with detergent-containing buffer, separated on a SDS-polyacryamide gel and analyzed by immunodetection (Western blots) or mass spectrometry detection.
(§2) For the quantitative detection of proteins by mass spectrometry proteins were eluted from the affinity matrix and subsequently separated by SDS-Polyacrylamide gel elecrophoresis. Suitable gel areas were cut out and subjected to in-gel proteolytic digestion with trypsin.
(§3) Four tryptic digest samples (corresponding to three different Bis VIII concentrations in the lysate and one DMSO control) were labeled with ITRAQ reagents and the combined samples were analyzed in a single LC-MS/MS mass spectrometry analysis followed by peak quantification in the MS/MS spectrum (Ross et al., 2004. Multiplexed protein quantitation in Saccharomyces cerevisiae using amine-reactive isobaric tagging reagents. Mol. Cell. Proteomics 3(12): 1154-1169). […] Binding curves for individual kinases are shown (FIG. 5). The relative intensity 50 (RI50) values representing the affinity of kinase-compound pairs are similar to IC50 values reported by kinase enzyme assays (Davies et al., 2000. Specificity and mechanism of action of some commonly used protein kinase inhibitors. Biochemical Journal 351 (Pt 1): 95-105).
(§4) Aliqots of Jurkat lysate (10 mg protein) were incubated with different Bis VIII concentrations for one hour at 4° C. (0.025 μM, 0.074 μM, 0.22 μM, 0.67 μM, 2.0 μM and 6.0 μM final concentration of Bis VIII). To this end Bis VIII solutions were prepared in 100% DMSO as solvent that corresponded to 200 fold desired final Bis VIII concentration (Bis VIII from Alexis Biochemicals cat. number ALX 270-056). Five μl of these solutions were added to 1 ml of lysate resulting in the indicated final concentrations. For a control experiment 5 μl of DMSO without Bis VIII were used.
(§5) To each preincubated lysate sample 40 μl of kinobeads (see example 1) were added and incubated for one hour at 4° C. During the incubation the tubes were rotated on an end-over-end shaker (Roto Shake Genie, Scientific Industries Inc.). Beads were collected by centrifugation, transfered to Mobicol-columns (MoBiTech 10055) and washed with 10 ml 1×DP buffer containing 0.4% NP40 detergent, followed by a wash with 5 ml 1×DP buffer with 0.2% NP40. To elute the bound proteins, 100 μl 2×SDS sample buffer was added, the column was heated for 30 minutes at 50° C. and the eluate was transferred to a microfuge tube by centrifugation. Proteins were then separated by SDS-Polyacrylamide electrophoresis (SDS-PAGE). The composition and preparation of buffers is described in example 2.
(§6) The peptide extracts of samples treated with different concentrations of the test compound (0.074 μM, 0.22 μM and 0.67 μM Bis VIII) and the solvent control (0.5% DMSO) were treated with different isomers of the isobaric tagging reagent (iTRAQ Reagents Multiplex Kit, part number 4352135, Applied Biosystems, Foster City, Calif., USA). The iTRAQ reagents are a set of multiplexed, amine-specific, stable isotope reagents that can label all peptides in up to four different biological samples enabling simultaneous identification and quantitation of peptides. The iTRAQ reagents were used according to instructions provided by the manufacturer. […]

[2] = target: T2, proteins captured on kinobeads from Jurkat cell lysate (Homo sapiens, UniProt Q2M2I8); test: as above; details: DMSO control = 1.0
T2 construct: endogenous in cells; host or cells: Jurkat clone E6-1 lysate
Description: as §1, §2, §3, §4, §5, §6

[3] = target: T3, proteins captured on kinobeads from Jurkat cell lysate (Homo sapiens, UniProt Q13131); test: as above; details: DMSO control = 1.0
T3 construct: endogenous in cells; host or cells: Jurkat clone E6-1 lysate
Description: as §1, §2, §3, §4, §5, §6

[4] = target: T4, proteins captured on kinobeads from Jurkat cell lysate (Homo sapiens, UniProt O14976); test: as above; details: DMSO control = 1.0
T4 construct: endogenous in cells; host or cells: Jurkat clone E6-1 lysate
Description: as §1, §2, §3, §4, §5, §6

[5] = target: T5, proteins captured on kinobeads from Jurkat cell lysate (Homo sapiens, UniProt O14965); test: as above; details: DMSO control = 1.0
T5 construct: endogenous in cells; host or cells: Jurkat clone E6-1 lysate
Description: as §1, §2, §3, §4, §5, §6

[6] = target: T6, proteins captured on kinobeads from Jurkat cell lysate (Homo sapiens, UniProt P24941); test: as above; details: DMSO control = 1.0
T6 construct: endogenous in cells; host or cells: Jurkat clone E6-1 lysate
Description: as §1, §2, §3, §4, §5, §6

[7] = target: T7, proteins captured on kinobeads from Jurkat cell lysate (Homo sapiens, UniProt Q9UHD2); test: as above; details: DMSO control = 1.0
T7 construct: endogenous in cells; host or cells: Jurkat clone E6-1 lysate
Description: as §1, §2, §3, §4, §5, §6

[8] = target: T8, proteins captured on kinobeads from Jurkat cell lysate (Homo sapiens, UniProt P16083); test: as above; details: DMSO control = 1.0
T8 construct: endogenous in cells; host or cells: Jurkat clone E6-1 lysate
Description: as §1, §2, §3, §4, §5, §6

[9] = target: T9, proteins captured on kinobeads from Jurkat cell lysate (Homo sapiens, UniProt P41240); test: as above; details: DMSO control = 1.0
T9 construct: endogenous in cells; host or cells: Jurkat clone E6-1 lysate
Description: as §1, §2, §3, §4, §5, §6

[10] = target: T10, proteins captured on kinobeads from Jurkat cell lysate (Homo sapiens, UniProt P45984); test: as above; details: DMSO control = 1.0
T10 construct: endogenous in cells; host or cells: Jurkat clone E6-1 lysate
Description: as §1, §2, §3, §4, §5, §6

[11] = target: T11, Glycogen Synthase Kinase 3 beta (Homo sapiens, UniProt P49841); test: In-lysate competition binding with kinobeads, Jurkat lysate, iTRAQ MS; details: for Relative Intensity, GSK3B: DMSO control = 1.0
T11 construct: Aliqots of Jurkat lysate (10 mg protein) were incubated with different Bis VIII concentrations; endogenous in cells; host or cells: Jurkat clone E6-1 lysate
Description: as §1, §2, §3, §4, §5, §6

protein kinase C alpha = target: T12, protein kinase C alpha (Homo sapiens, UniProt P17252); test: as above; details: for Relative Intensity, PKCa (PRKCA): DMSO control = 1.0
T12 construct: Aliqots of Jurkat lysate (10 mg protein) were incubated with different Bis VIII concentrations; endogenous in cells; host or cells: Jurkat clone E6-1 lysate
Description: as §1, §2, §3, §4, §5, §6

protein kinase C beta = protein kinase C beta (Homo sapiens, UniProt P05771); test: as above; details: for Relative Intensity, PKCb (PRKCB1): DMSO control = 1.0
Description: as §1, §2, §3, §4, §5, §6

[12] = target: T13, Glycogen Synthase Kinase 3 alpha (Homo sapiens, UniProt P49840); test: as above; details: for Relative Intensity, GSK3A: DMSO control = 1.0
T13 construct: endogenous in cells; host or cells: Jurkat clone E6-1 lysate
Description: as §1, §2, §3, §4, §5, §6

T13 sequence (P49840 whole entry): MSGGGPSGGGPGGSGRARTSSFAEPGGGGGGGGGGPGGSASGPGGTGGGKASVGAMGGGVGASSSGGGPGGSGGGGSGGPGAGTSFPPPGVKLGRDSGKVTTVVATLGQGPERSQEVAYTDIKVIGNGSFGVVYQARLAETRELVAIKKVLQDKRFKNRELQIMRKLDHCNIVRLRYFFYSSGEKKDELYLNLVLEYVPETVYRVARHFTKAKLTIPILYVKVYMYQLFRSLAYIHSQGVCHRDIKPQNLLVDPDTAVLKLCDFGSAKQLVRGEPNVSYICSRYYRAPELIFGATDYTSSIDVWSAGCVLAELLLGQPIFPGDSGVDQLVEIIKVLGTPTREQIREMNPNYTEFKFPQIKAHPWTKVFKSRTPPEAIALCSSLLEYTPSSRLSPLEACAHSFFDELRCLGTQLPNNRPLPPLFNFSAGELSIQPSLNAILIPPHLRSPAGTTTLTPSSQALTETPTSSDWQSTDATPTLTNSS
Chain of protein kinase C beta (P05771 whole entry): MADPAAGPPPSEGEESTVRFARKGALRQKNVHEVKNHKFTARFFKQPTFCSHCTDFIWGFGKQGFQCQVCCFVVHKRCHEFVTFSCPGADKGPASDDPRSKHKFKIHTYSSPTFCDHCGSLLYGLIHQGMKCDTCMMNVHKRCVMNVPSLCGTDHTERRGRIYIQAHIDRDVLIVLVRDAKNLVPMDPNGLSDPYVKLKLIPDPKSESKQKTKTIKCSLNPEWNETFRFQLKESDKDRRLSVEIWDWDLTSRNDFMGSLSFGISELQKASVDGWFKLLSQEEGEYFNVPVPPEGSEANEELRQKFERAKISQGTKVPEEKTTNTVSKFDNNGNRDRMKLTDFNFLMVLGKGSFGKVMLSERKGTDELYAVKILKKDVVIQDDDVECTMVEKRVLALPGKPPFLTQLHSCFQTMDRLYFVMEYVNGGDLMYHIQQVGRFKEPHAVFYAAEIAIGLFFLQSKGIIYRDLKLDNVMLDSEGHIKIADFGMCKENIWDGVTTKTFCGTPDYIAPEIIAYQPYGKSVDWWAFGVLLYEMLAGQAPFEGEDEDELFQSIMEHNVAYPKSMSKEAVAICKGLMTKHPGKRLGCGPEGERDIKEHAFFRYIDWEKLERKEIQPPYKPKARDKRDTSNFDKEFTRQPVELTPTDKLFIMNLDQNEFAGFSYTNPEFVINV
T11 sequence (P49841 whole entry): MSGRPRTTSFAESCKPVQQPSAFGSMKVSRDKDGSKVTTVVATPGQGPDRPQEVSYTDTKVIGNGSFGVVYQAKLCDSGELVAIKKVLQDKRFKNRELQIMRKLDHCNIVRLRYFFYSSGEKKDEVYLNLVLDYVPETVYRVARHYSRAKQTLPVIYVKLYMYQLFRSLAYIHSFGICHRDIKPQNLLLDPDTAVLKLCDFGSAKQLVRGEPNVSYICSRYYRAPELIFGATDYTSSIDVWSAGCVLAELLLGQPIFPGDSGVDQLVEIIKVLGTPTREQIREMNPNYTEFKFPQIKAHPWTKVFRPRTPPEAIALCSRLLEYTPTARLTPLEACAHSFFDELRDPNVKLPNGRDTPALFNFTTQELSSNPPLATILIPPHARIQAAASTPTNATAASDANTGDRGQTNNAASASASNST
T10 sequence (P45984 whole entry): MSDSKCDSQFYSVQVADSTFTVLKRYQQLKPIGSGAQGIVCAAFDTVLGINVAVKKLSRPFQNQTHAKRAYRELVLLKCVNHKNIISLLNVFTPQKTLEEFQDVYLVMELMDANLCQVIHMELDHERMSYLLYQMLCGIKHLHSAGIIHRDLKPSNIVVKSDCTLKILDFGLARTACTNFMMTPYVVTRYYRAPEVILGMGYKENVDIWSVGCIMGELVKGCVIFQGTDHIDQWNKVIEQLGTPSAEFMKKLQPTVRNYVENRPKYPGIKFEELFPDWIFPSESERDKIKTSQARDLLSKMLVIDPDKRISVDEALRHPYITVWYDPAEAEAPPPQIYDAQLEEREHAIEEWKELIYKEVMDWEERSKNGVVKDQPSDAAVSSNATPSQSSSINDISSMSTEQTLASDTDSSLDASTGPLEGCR
T4 sequence (O14976 whole entry): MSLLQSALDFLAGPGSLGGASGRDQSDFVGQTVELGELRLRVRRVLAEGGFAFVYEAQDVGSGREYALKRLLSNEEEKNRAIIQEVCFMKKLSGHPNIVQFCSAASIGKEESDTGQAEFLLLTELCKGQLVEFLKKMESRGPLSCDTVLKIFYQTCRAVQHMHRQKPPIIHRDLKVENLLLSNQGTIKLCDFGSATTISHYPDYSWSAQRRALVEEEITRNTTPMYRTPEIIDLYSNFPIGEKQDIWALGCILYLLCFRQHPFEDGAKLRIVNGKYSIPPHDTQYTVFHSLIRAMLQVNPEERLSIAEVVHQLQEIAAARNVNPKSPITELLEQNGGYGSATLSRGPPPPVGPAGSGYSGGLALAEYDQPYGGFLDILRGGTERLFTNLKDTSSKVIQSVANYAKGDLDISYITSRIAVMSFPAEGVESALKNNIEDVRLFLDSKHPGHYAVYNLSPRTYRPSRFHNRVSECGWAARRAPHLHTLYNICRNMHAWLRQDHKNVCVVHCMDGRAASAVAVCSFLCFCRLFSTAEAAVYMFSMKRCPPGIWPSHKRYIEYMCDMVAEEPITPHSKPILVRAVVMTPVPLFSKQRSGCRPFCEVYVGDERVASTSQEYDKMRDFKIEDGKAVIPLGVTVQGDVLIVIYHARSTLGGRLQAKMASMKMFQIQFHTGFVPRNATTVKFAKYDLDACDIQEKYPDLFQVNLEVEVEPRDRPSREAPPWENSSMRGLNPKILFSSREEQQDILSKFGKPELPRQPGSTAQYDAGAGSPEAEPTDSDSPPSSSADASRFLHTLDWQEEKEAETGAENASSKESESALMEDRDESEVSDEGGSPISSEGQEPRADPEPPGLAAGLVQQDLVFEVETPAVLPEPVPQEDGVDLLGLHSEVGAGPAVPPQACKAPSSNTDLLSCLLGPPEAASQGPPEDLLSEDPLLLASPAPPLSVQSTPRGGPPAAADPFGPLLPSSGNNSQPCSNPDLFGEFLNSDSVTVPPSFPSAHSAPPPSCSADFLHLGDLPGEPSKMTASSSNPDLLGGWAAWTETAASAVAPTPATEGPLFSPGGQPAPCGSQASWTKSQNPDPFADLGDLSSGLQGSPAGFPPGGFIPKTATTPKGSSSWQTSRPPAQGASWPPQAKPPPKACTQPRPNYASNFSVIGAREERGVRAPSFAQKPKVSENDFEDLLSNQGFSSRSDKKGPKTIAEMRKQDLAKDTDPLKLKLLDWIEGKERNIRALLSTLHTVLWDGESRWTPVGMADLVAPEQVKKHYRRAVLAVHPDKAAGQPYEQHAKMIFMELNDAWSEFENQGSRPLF
T3 sequence (Q13131 whole entry): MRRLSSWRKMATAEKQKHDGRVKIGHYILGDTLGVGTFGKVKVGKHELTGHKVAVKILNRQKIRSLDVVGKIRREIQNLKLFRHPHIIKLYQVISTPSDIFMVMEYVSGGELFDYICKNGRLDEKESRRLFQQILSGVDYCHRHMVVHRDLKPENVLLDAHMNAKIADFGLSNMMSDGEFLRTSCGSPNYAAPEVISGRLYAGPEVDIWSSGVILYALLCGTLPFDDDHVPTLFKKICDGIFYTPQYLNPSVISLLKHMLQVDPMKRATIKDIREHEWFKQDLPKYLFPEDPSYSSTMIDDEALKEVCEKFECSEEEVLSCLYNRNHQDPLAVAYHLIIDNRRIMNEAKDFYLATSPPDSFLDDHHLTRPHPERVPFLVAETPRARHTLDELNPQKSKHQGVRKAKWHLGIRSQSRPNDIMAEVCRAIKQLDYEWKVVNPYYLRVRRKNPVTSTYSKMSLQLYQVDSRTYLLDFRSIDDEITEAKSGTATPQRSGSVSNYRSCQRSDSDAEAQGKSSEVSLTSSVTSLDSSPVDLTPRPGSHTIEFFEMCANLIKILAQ
T5 sequence (O14965 whole entry): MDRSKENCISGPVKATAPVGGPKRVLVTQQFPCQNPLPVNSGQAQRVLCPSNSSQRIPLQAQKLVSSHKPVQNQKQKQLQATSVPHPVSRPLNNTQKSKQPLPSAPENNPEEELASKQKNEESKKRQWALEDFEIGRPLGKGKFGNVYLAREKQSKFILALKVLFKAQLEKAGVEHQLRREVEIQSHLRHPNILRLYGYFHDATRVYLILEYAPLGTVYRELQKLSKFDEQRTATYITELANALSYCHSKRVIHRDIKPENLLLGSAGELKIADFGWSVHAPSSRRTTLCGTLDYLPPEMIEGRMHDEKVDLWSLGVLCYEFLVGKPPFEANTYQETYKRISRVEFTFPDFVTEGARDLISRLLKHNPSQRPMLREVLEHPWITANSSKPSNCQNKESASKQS

## Cn1cc(C2=C(c3cn(CCCN)c4ccccc34)C(=O)NC2=O)c2ccccc21 [Bis VIII, Bisindolylmaleimide VIII]
[1]; 0.074 uM in lysate
  Relative Intensity, CDK7: 1.03
[1]; 0.67 uM in lysate
  Relative Intensity, CDK7: 0.89
[2]; 0.074 uM in lysate
  Relative Intensity, AAK1: 0.82
[2]; 0.67 uM in lysate
  Relative Intensity, AAK1: 0.75
[3]; 0.074 uM in lysate
  Relative Intensity, AMPKa1 (PRKAA1): 0.88
[3]; 0.67 uM in lysate
  Relative Intensity, AMPKa1 (PRKAA1): 0.91
[4]; 0.074 uM in lysate
  Relative Intensity, GAK: 0.92
[4]; 0.67 uM in lysate
  Relative Intensity, GAK: 0.97
[5]; 0.074 uM in lysate
  Relative Intensity, AurA (STK6): 0.90
[5]; 0.67 uM in lysate
  Relative Intensity, AurA (STK6): 0.87
[6]; 0.074 uM in lysate
  Relative Intensity, CDK2: 0.89
[6]; 0.67 uM in lysate
  Relative Intensity, CDK2: 0.65
[7]; 0.074 uM in lysate
  Relative Intensity, TBK1: 1.05
[7]; 0.67 uM in lysate
  Relative Intensity, TBK1: 1.14
[8]; 0.074 uM in lysate
  Relative Intensity, NQO2: 0.87
[8]; 0.67 uM in lysate
  Relative Intensity, NQO2: 0.78
[9]; 0.074 uM in lysate
  Relative Intensity, CSK: 0.84
[9]; 0.67 uM in lysate
  Relative Intensity, CSK: 0.89
[10]; 0.074 uM in lysate
  Relative Intensity, JNK2 (MAPK9): 0.97
[10]; 0.67 uM in lysate
  Relative Intensity, JNK2 (MAPK9): 1.04
[11]; 0.074 uM in lysate
  Relative Intensity, GSK3B: 0.54
[11]; 0.67 uM in lysate
  Relative Intensity, GSK3B: 0.28
[11]; Jurkat cell lysate, concentration at which relative intensity of the MS signal is 50% of DMSO control, read-out: RI50 (GSKb)
  IC50: 95 nM
Protein kinase C alpha; 0.074 uM in lysate
  Relative Intensity, PKCa (PRKCA): 0.25
Protein kinase C alpha; 0.67 uM in lysate
  Relative Intensity, PKCa (PRKCA): 0.18
Protein kinase C alpha; Jurkat cell lysate, concentration at which relative intensity of the MS signal is 50% of DMSO control, read-out: RI50 (PKCa)
  IC50: 12.2 nM
Protein kinase C beta; 0.074 uM in lysate
  Relative Intensity, PKCb (PRKCB1): 0.29
Protein kinase C beta; 0.67 uM in lysate
  Relative Intensity, PKCb (PRKCB1): 0.17
Protein kinase C beta; Jurkat cell lysate, concentration at which relative intensity of the MS signal is 50% of DMSO control, read-out: RI50 (PKCb)
  IC50: 21.5 nM
[12]; 0.074 uM in lysate
  Relative Intensity, GSK3A: 0.50
[12]; 0.67 uM in lysate
  Relative Intensity, GSK3A: 0.20
[12]; Jurkat cell lysate, concentration at which relative intensity of the MS signal is 50% of DMSO control, read-out: RI50 (GSKa)
  IC50: 72.7 nM
